The record followed here is PubChem BioAssay AID256 (DTP/NCI, 2004).

Several values for one entry are separate records, joined by “and”; a condition that tells them apart may be missing. Equal entries are not always repeated. Inconclusive results and toxic doses are left out.

The subject of the experiment is CD2F1 mice, L1210 leukemia ip, survival T/C. Description: NCI In Vivo Anticancer Drug Screen. Data for tumor model L1210 Leukemia (intraperitoneal) in CD2F1 (CDF1) mice. The settings on record: higher = longer survival. The method in brief: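 Mice carrying a transplanted tumor received test compound or vehicle alone. The value is the measurement in the treated group divided by that in the vehicle-treated control group.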

Where [1] appears, read: endpoint: mean survival time, dose: 25.0 mg/kg/injection, schedule: Q04DX002 (ip), vehicle: saline with Tween-80.
Where [2] appears, read: endpoint: mean survival time, dose: 50.0 mg/kg/injection, schedule: Q04DX002 (ip), vehicle: saline with Tween-80.
Where [3] appears, read: endpoint: mean survival time, dose: 100.0 mg/kg/injection, schedule: Q04DX002 (ip), vehicle: saline with Tween-80.
Setting [4] is: endpoint: mean survival time, dose: 50.0 mg/kg/injection, schedule: Q01DX001 (ip), vehicle: saline with Tween-80.
Setting [5] is: endpoint: mean survival time, dose: 100.0 mg/kg/injection, schedule: Q01DX001 (ip), vehicle: saline with Tween-80.
[6] abbreviates: endpoint: mean survival time, dose: 200.0 mg/kg/injection, schedule: Q01DX001 (ip), vehicle: saline with Tween-80.
Setting [7] is: endpoint: mean survival time, dose: 75.0 mg/kg/injection, schedule: Q01DX001 (ip), vehicle: saline.
[8] abbreviates: endpoint: mean survival time, dose: 150.0 mg/kg/injection, schedule: Q01DX001 (ip), vehicle: saline.
The mark [9] stands for this setting: endpoint: mean survival time, dose: 50.0 mg/kg/injection, schedule: Q04DX003 (ip), vehicle: saline with Tween-80.
Where [10] appears, read: endpoint: mean survival time, dose: 100.0 mg/kg/injection, schedule: Q04DX003 (ip), vehicle: saline with Tween-80.
[11] abbreviates: endpoint: mean survival time, dose: 200.0 mg/kg/injection, schedule: Q04DX003 (ip), vehicle: saline with Tween-80.
Where [12] appears, read: endpoint: mean survival time, dose: 100.0 mg/kg/injection, schedule: Q01DX009 (ip), vehicle: saline with Tween-80.
The mark [13] stands for this setting: endpoint: mean survival time, dose: 200.0 mg/kg/injection, schedule: Q01DX009 (ip), vehicle: saline with Tween-80.
[14] abbreviates: endpoint: mean survival time, dose: 400.0 mg/kg/injection, schedule: Q01DX009 (ip), vehicle: saline with Tween-80.
Setting [15] is: endpoint: mean survival time, dose: 400.0 mg/kg/injection, schedule: Q04DX003 (ip), vehicle: saline with Tween-80.
Where [16] appears, read: endpoint: mean survival time, dose: 25.0 mg/kg/injection, schedule: Q01DX009 (ip), vehicle: saline with Tween-80.

With `CC1OC(n2ccc(=O)[nH]c2=O)C(O)C(O)C1=O` (stereo not given), the T/C reads like this: (endpoint: median survival time, dose: 26.5 mg/kg/injection, schedule: Q01DX005 (ip), vehicle: Klucel (hydroxypropylcellulose) (HPC)) 102 % of control; (endpoint: median survival time, dose: 53.0 mg/kg/injection, schedule: Q01DX005 (ip), vehicle: Klucel (hydroxypropylcellulose) (HPC)) 100 % of control; (endpoint: median survival time, dose: 106.0 mg/kg/injection, schedule: Q01DX005 (ip), vehicle: Klucel (hydroxypropylcellulose) (HPC)) 107 % of control; (endpoint: median survival time, dose: 212.0 mg/kg/injection, schedule: Q01DX005 (ip), vehicle: Klucel (hydroxypropylcellulose) (HPC)) 101 % of control.

For `CCCCCCCCCCCCOP(OCC)OCCCCCCCCCCCC`, the T/C under setting [1] is 104 % of control; the T/C under setting [2] is 101 % of control; the T/C under setting [3] was 96 % of control and 101 % of control.

For `Nc1nc(=O)n(CCCOc2ccccc2NC(=O)c2ccc(S(=O)(=O)F)cc2)cc1-c1ccc(Cl)c(Cl)c1`, the T/C runs as follows: under setting [4], 96 % of control; under setting [5], 93 % of control; under setting [6], 93 % of control.

With `CCCC(CCC)(CNC(C)=O)C1CCCCC1`, the T/C reads like this: under setting [7], 98 % of control; under setting [8], 88 % of control; (endpoint: mean survival time, dose: 300.0 mg/kg/injection, schedule: Q01DX001 (ip), vehicle: saline) 87 % of control.

`CCOC(=O)c1cnc(SCc2ccccc2Cl)nc1N1CC1`: the T/C (endpoint: mean survival time, dose: 28.05 mg/kg/injection, schedule: Q01DX009 (ip), vehicle: saline with Tween-80) is 115 % of control.

Consider `COc1ccc(P(c2ccc(OC)cc2)c2ccc(OC)cc2)cc1`, for which the T/C under setting [9] is 97 % of control, the T/C under setting [10] is 96 % of control and the T/C under setting [11] was 91 % of control.

Turning to `CC1Cc2c3ccc4ccccc4c3cc3cccc1c23` (stereo not given) (tested in a mixture with another compound), the T/C runs as follows: (endpoint: mean survival time, dose: 75.0 mg/kg/injection, schedule: Q04DX002 (ip), vehicle: saline with Tween-80) 105 % of control; (endpoint: mean survival time, dose: 150.0 mg/kg/injection, schedule: Q04DX002 (ip), vehicle: saline with Tween-80) 105 % of control; (endpoint: mean survival time, dose: 300.0 mg/kg/injection, schedule: Q04DX002 (ip), vehicle: saline with Tween-80) 97 % of control.

On to `CC(CC(O)(c1ccccc1)c1ccccc1)C(F)(F)F` (stereo not given), for which the T/C under setting [12] is 100 % of control; the T/C under setting [10] is 94 % of control; the T/C under setting [13] is 95 % of control; the T/C under setting [11] was 96 % of control; the T/C under setting [14] was 98 % of control; the T/C under setting [15] was 97 % of control.

`C/C=C\C=C\C(=O)O`: the T/C reads like this: under setting [12], 100 % of control; under setting [13], 97 % of control; under setting [14], 100 % of control.

Regarding `CC1(CCCc2ccc(N(CCCl)CCCl)cc2)NC(=O)NC1=O` (stereo not given), the T/C (endpoint: mean survival time, dose: 50.0 mg/kg/injection, schedule: Q01DX009 (ip), vehicle: Klucel (hydroxypropylcellulose) (HPC)) was 114 % of control; the T/C (endpoint: mean survival time, dose: 100.0 mg/kg/injection, schedule: Q01DX009 (ip), vehicle: Klucel (hydroxypropylcellulose) (HPC)) was 93 % of control; the T/C (endpoint: mean survival time, dose: 200.0 mg/kg/injection, schedule: Q01DX009 (ip), vehicle: Klucel (hydroxypropylcellulose) (HPC)) is 86 % of control.

As for `N#CCSc1ncnc2nc[nH]c12`, the T/C by setting is: (endpoint: mean survival time, dose: 15.0 mg/kg/injection, schedule: Q01DX009 (ip), vehicle: saline) 95 % of control and 107 % of control; (endpoint: mean survival time, dose: 30.0 mg/kg/injection, schedule: Q01DX009 (ip), vehicle: saline) 110 % of control and 112 % of control; (endpoint: mean survival time, dose: 60.0 mg/kg/injection, schedule: Q01DX009 (ip), vehicle: saline) 110 % of control; (endpoint: median survival time, dose: 30.0 mg/kg/injection, schedule: Q01DX009 (ip), vehicle: saline) 100 % of control; (endpoint: median survival time, dose: 60.0 mg/kg/injection, schedule: Q01DX009 (ip), vehicle: saline) 122 % of control.

As to `O=C1CN(CN2CCOCC2)C(=O)CN1CN1CCOCC1`, the T/C was 98 % of control and 101 % of control (endpoint: mean survival time, dose: 12.5 mg/kg/injection, schedule: Q01DX009 (ip), vehicle: saline); 96 % of control and 98 % of control (endpoint: mean survival time, dose: 25.0 mg/kg/injection, schedule: Q01DX009 (ip), vehicle: saline); 90 % of control and 102 % of control (endpoint: mean survival time, dose: 50.0 mg/kg/injection, schedule: Q01DX009 (ip), vehicle: saline); 102 % of control and 108 % of control (endpoint: mean survival time, dose: 100.0 mg/kg/injection, schedule: Q01DX009 (ip), vehicle: saline); 106 % of control and 111 % of control (endpoint: mean survival time, dose: 200.0 mg/kg/injection, schedule: Q01DX009 (ip), vehicle: saline); 93 % of control and 107 % of control (endpoint: mean survival time, dose: 400.0 mg/kg/injection, schedule: Q01DX009 (ip), vehicle: saline).

`CCOC(=O)c1c(C)csc1NC(C)=O`: the T/C is, setting by setting: under setting [12], 108 % of control; under setting [10], 96 % of control; under setting [13], 97 % of control; under setting [11], 98 % of control; under setting [14], 90 % of control; under setting [15], 93 % of control.

As to `CN(C)N=Nc1ccc(SC#N)cc1C(N)=O`, the T/C (endpoint: mean survival time, dose: 18.8 mg/kg/injection, schedule: Q01DX009 (ip), vehicle: Klucel (hydroxypropylcellulose) (HPC)) is 93 % of control and 103 % of control; the T/C (endpoint: mean survival time, dose: 37.5 mg/kg/injection, schedule: Q01DX009 (ip), vehicle: Klucel (hydroxypropylcellulose) (HPC)) was 97 % of control and 106 % of control; the T/C (endpoint: mean survival time, dose: 75.0 mg/kg/injection, schedule: Q01DX009 (ip), vehicle: Klucel (hydroxypropylcellulose) (HPC)) was 107 % of control and 108 % of control; the T/C (endpoint: mean survival time, dose: 150.0 mg/kg/injection, schedule: Q01DX009 (ip), vehicle: Klucel (hydroxypropylcellulose) (HPC)) was 88 % of control and 110 % of control.

In the case of `N#CC(/C=C/c1ccccc1)Nc1ccccc1O` (stereo not given), the T/C under setting [12] was 93 % of control.

For `COc1cccc(CN2CCNCC2)c1`, the T/C (endpoint: mean survival time, dose: 25.0 mg/kg/injection, schedule: Q01DX005 (ip), vehicle: water) is 102 % of control; the T/C (endpoint: mean survival time, dose: 50.0 mg/kg/injection, schedule: Q01DX005 (ip), vehicle: water) was 102 % of control; the T/C (endpoint: mean survival time, dose: 100.0 mg/kg/injection, schedule: Q01DX005 (ip), vehicle: water) is 102 % of control.

`O=C(O)CCCSc1nc2ccccc2s1`: the T/C under setting [12] was 98 % of control; the T/C under setting [10] was 95 % of control; the T/C under setting [13] is 97 % of control; the T/C under setting [11] was 98 % of control; the T/C under setting [14] is 105 % of control; the T/C under setting [15] is 98 % of control.

In the case of `O=c1[nH]cnc2c1CN(c1ccccc1)C2`, the T/C under setting [7] was 113 % of control and the T/C under setting [8] was 104 % of control.

In the case of `CCC(Cc1ccccc1)C(=O)O` (stereo not given), the T/C by setting is: (endpoint: mean survival time, dose: 100.0 mg/kg/injection, schedule: Q04DX003 (ip), vehicle: saline) 108 % of control; (endpoint: mean survival time, dose: 200.0 mg/kg/injection, schedule: Q04DX003 (ip), vehicle: saline) 97 % of control; (endpoint: mean survival time, dose: 400.0 mg/kg/injection, schedule: Q04DX003 (ip), vehicle: saline) 97 % of control.

`N#CC1c2ccccc2C=CN1C(=O)OCc1ccccc1` (stereo not given): the T/C runs as follows: (endpoint: mean survival time, dose: 100.0 mg/kg/injection, schedule: Q04DX003 (ip), vehicle: Klucel (hydroxypropylcellulose) (HPC)) 91 % of control; (endpoint: mean survival time, dose: 200.0 mg/kg/injection, schedule: Q04DX003 (ip), vehicle: Klucel (hydroxypropylcellulose) (HPC)) 110 % of control; (endpoint: mean survival time, dose: 400.0 mg/kg/injection, schedule: Q04DX003 (ip), vehicle: Klucel (hydroxypropylcellulose) (HPC)) 106 % of control.

For the compound `O=C1NCCN1c1ncc([N+](=O)[O-])s1`, the T/C under setting [16] was 101 % of control; the T/C (endpoint: mean survival time, dose: 50.0 mg/kg/injection, schedule: Q01DX009 (ip), vehicle: saline with Tween-80) is 97 % of control; the T/C under setting [12] was 97 % of control.

Take `NC(=S)N/N=C/c1ccc(OC(=O)COc2ccccc2Cl)cn1`: the T/C is 120 % of control (endpoint: mean survival time, dose: 12.5 mg/kg/injection, schedule: Q01DX009 (ip), vehicle: saline with Tween-80); 122 % of control under setting [16]; 101 % of control under setting [4]; 116 % of control and 118 % of control under setting [9]; 108 % of control under setting [5]; 159 % of control under setting [12]. Also, the T/C runs as follows: under setting [3], 103 % of control and 106 % of control; under setting [10], 124 % of control; under setting [6], 113 % of control; under setting [13], 155 % of control; (endpoint: mean survival time, dose: 200.0 mg/kg/injection, schedule: Q04DX002 (ip), vehicle: saline with Tween-80) 118 % of control and 107 % of control; under setting [15], 152 % of control and 163 % of control.

Take `N#CC(c1c[nH]c2ccccc12)N1CCOCC1` (stereo not given): the T/C under setting [1] was 105 % of control and the T/C under setting [2] was 100 % of control.

Regarding `C(#CCNC1CCCCC1)CNC1CCCCC1`, the T/C runs as follows: under setting [1], 94 % of control; under setting [2], 98 % of control.
